According to patent publication US9968553B1, “Enalapril compositions” (Silvergate Pharmaceuticals, Inc., priority 2012, dated 2018):

Experiment: Reconstitution studies in 150 mL Ora-Sweet SF syrup (visual inspection)
Format: physicochemical
Details: 150 mL Ora-Sweet SF sugar-free flavored syrup
Description: The scaled-up enalapril and mannitol powder compositions (Enalapril Powder Composition A and the like) were examined in reconstitution studies where 150 mL Ora-Sweet® SF sugar-free flavored syrup was to the powder compositions.
Reconstitution of Neat Enalapril Powder in Bottle: Due to the ‘clouding’ in the reconstitution as well as the uniformity issues in the scale-up studies of Enalapril Powder Composition A, neat enalapril, i.e., drug alone, without any excipients, was examined for scale-up bottle filling and subsequent reconstitution.

CCOC(=O)[C@H](CCc1ccccc1)N[C@@H](C)C(=O)N1CCC[C@H]1C(=O)O [neat enalapril, enalapril]
Reconstitution, visual observation of dissolution: did not dissolve
